# Test results published in US9695168B2 (Incyte Corporation, priority 2014, dated 2017).
# Target: LSD1 (Homo sapiens (Human), UniProt O60341)
# Assay: LSD1 Histone Demethylase Biochemical Assay (LANCE LSD1/KDM1A demethylase assay)
# Conditions: 1 nM LSD-1 enzyme, 1 hour preincubation at 25° C., 0.4 μM Biotin-labeled Histone H3 peptide substrate
# Protocol: LSD1 Histone Demethylase Biochemical Assay
# LANCE LSD1/KDM1A demethylase assay-10 μL of 1 nM LSD-1 enzyme (ENZO BML-SE544-0050) in the assay buffer (50 mM Tris, pH 7.5, 0.01% Tween-20, 25 mM NaCl, 5 mM DTT) were preincubated for 1 hour at 25° C. with 0.8 μL compound/DMSO dotted in black 384 well polystyrene plates. […] Reactions were stopped by addition of 10 μL 1× LANCE Detection Buffer (PerkinElmer CR97-100) supplemented with 1.5 nM Eu-anti-unmodified H3K4 Antibody (PerkinElmer TRF0404), and 225 nM LANCE Ultra Streptavidin (PerkinElmer TRF102) along with 0.9 mM Tranylcypromine-HCl (Millipore 616431). After stopping the reactions plates were incubated for 30 minutes and read on a PHERAstar FS plate reader (BMG Labtech).
row,Structure (SMILES),IC50 [µM]
1,"N#Cc1ccc(-c2cc(OC[C@@H]3CCNC3)c3cncn3c2-c2ccc(N3CCOCC3)cc2)cc1 [Example 13, 4-{5-(4-morpholin-4-ylphenyl)-8-[(3R)-pyrrolidin-3-ylmethoxy]imidazo[1,5-a]pyridin-6-yl}benzonitrile]",0.05 to 0.1
2,"CN1CCC[C@@H](COc2cc(-c3ccc(C#N)cc3)c(-c3cnc4c(c3)nnn4C3CC3)n3cncc23)C1 [Example 156, (R)-4-(5-(3-cyclopropyl-3H-[1,2,3]triazolo[4,5-b]pyridin-6-yl)-8-((1-methylpiperidin-3-yl)methoxy)imidazo[1,5-a]pyridin-6-yl)benzonitrile]",0.1 to 0.5
3,"N#Cc1ccc(-c2cc(OC[C@@H]3CCNC3)c3cncn3c2-c2cnn(C3CCC3)c2)cc1 [Example 7, 4-{5-(1-cyclobutyl-1H-pyrazol-4-yl)-8-[(3R)-pyrrolidin-3-ylmethoxy]imidazo[1,5-a]pyridin-6-yl}benzonitrile]",0.05 to 0.1
4,"CN1CCC[C@@H](COc2cc(-c3ccc(C#N)cc3)c(-c3ccc(C(C)(C)C#N)nc3)n3cncc23)C1 [Example 132, 4-(5-[6-(1-cyano-1-methylethyl)pyridin-3-yl]-8-{[(3R)-1-methylpiperidin-3-yl]methoxy}imidazo[1,5-a]pyridin-6-yl)benzonitrile]",0.05 to 0.1
5,"CC(C)n1nnc2cc(-c3c(-c4ccc(C#N)cc4)cc(OC[C@@H]4CCCN(C)C4)c4cncn34)cnc21 [Example 155, (R)-4-(5-(3-isopropyl-3H-[1,2,3]triazolo[4,5-b]pyridin-6-yl)-8-((1-methylpiperidin-3-yl)methoxy)imidazo[1,5-a]pyridin-6-yl)benzonitrile]",0.1 to 0.5
6,"CN(C)C1CCN(c2nc(-c3ccc(C#N)cc3)c(-c3cnc4ccoc4c3)n3cncc23)CC1 [Example 104, 4-(8-(4-(dimethylamino)piperidin-1-yl)-5-(furo[3,2-b]pyridin-6-yl)imidazo[1,5-a]pyrazin-6-yl)benzonitrile]",0.05 to 0.1
7,"Cc1ncc(-c2c(-c3ccc(C#N)cc3)nc(OC[C@@H]3CCCN(C)C3)c3cncn23)cc1F [Example 88, 4-(5-(5-fluoro-6-methylpyridin-3-yl)-8-{[(3R)-1-methylpiperidin-3-yl]methoxy}imidazo[1,5-a]pyrazin-6-yl)benzonitrile]",0.05 to 0.1
8,"CN1CCC[C@@H](COc2cc(-c3ccc(C#N)cc3)c(-c3cnc4c(c3)CCCO4)n3cncc23)C1 [Example 61, (R)-4-(5-(3,4-dihydro-2H-pyrano[2,3-b]pyridin-6-yl)-8-((1-methylpiperidin-3-yl)methoxy)imidazo[1,5-a]pyridin-6-yl)benzonitrile]",0.05 to 0.1
9,"CCN1CCC[C@@H](COc2nc(-c3ccc(C#N)cc3)c(-c3ccc4c(c3)CC(=O)N4C)n3cncc23)C1 [Example 110, 4-[8-{[(3R)-1-ethylpiperidin-3-yl]methoxy}-5-(1-methyl-2-oxo-2,3-dihydro-1H-indol-5-yl)imidazo[1,5-a]pyrazin-6-yl]benzonitrile]",0.05 to 0.1
10,"CCN1CCC[C@@H](COc2cc(-c3ccc(C#N)cc3)c(-c3ccc(C)nc3)n3cncc23)C1 [Example 146, 4-[8-{[(3R)-1-ethylpiperidin-3-yl]methoxy}-5-(6-methylpyridin-3-yl)imidazo[1,5-a]pyridin-6-yl]benzonitrile]",0.05 to 0.1
11,"CN1CCC[C@@H](COc2nc(-c3ccc(C#N)cc3)c(-c3ccc4ncsc4c3)n3cncc23)C1 [Example 33, 4-(5-(1,3-benzothiazol-6-yl)-8-{[(3R)-1-methylpiperidin-3-yl]methoxy}imidazo[1,5-a]pyrazin-6-yl)benzonitrile]",0.05 to 0.1
12,"CN(C)[C@H]1CCN(c2nc(-c3ccc(C#N)cc3)c(-c3ccc4c(c3)oc(=O)n4C)n3cncc23)C1 [Example 112, (S)-4-(8-(3-(dimethylamino)pyrrolidin-1-yl)-5-(3-methyl-2-oxo-2,3-dihydrobenzo[d]oxazol-6-yl)imidazo[1,5-a]pyrazin-6-yl)benzonitrile]",0.05 to 0.1
13,"CCN1CCC[C@@H](COc2cc(-c3ccc(C#N)cc3)c(-c3cnc4c(c3)CCCO4)n3cncc23)C1 [Example 68, (R)-4-(5-(3,4-dihydro-2H-pyrano[2,3-b]pyridin-6-yl)-8-((1-ethylpiperidin-3-yl)methoxy)imidazo[1,5-a]pyridin-6-yl)benzonitrile]",0.05 to 0.1
14,"CN1CCC[C@@H](COc2nc(-c3ccc(C#N)cc3)c(-c3ccc4c(c3)n(C)c(=O)n4C)n3cncc23)C1 [Example 26, 4-(5-(1,3-dimethyl-2-oxo-2,3-dihydro-1H-benzimidazol-5-yl)-8-{[(3R)-1-methylpiperidin-3-yl]methoxy}imidazo[1,5-a]pyrazin-6-yl)benzonitrile]",0.1 to 0.5
15,"CN1CCC[C@@H](COc2cc(-c3ccc(C#N)cc3)c(-c3cnc4cccnc4c3)n3cncc23)C1 [Example 59, (R)-4-(8-((1-methylpiperidin-3-yl)methoxy)-5-(1,5-naphthyridin-3-yl)imidazo[1,5-a]pyridin-6-yl)benzonitrile]",0.1 to 0.5
16,"CNC(=O)c1ccc(-c2c(-c3ccc(C#N)cc3)cc(OC[C@@H]3CCCN(C)C3)c3cncn23)cn1 [Example 135, 5-(6-(4-cyanophenyl)-8-{[(3R)-1-methylpiperidin-3-yl]methoxy}imidazo[1,5-a]pyridin-5-yl)-N-methylpyridine-2-carboxamide]",0.05 to 0.1
17,"CN1CCC[C@@H](COc2nc(-c3ccc(C#N)cc3)c(-c3ccc4ncccc4c3)n3cncc23)C1 [Example 31, 4-(8-{[(3R)-1-methylpiperidin-3-yl]methoxy}-5-quinolin-6-ylimidazo[1,5-a]pyrazin-6-yl)benzonitrile]",0.05 to 0.1
18,"Cn1ncc2cc(-c3c(-c4ccc(C#N)cc4)nc(OC[C@@H]4CCCN(CC(C)(C)O)C4)c4cncn34)cnc21 [Example 41, 4-[8-{[(3R)-1-(2-hydroxy-2-methylpropyl)piperidin-3-yl]methoxy}-5-(1-methyl-1H-pyrazolo[3,4-b]pyridin-5-yl)imidazo[1,5-a]pyrazin-6-yl]benzonitrile]",0.05 to 0.1
19,"CC(O)CN1CCC[C@@H](COc2nc(-c3ccc(C#N)cc3)c(-c3cnc4c(cnn4C)c3)n3cncc23)C1 (stereo partly drawn) [Example 39, 4-[8-{[(3R)-1-(2-hydroxypropyl)piperidin-3-yl]methoxy}-5-(1-methyl-1H-pyrazolo[3,4-b]pyridin-5-yl)imidazo[1,5-a]pyrazin-6-yl]benzonitrile]",0.1 to 0.5
20,"CC(C)(C)OC(=O)N1CC=C(c2c(-c3ccc(C#N)cc3)cc(OC[C@@H]3CCNC3)c3cncn23)CC1 [Example 10, tert-butyl 4-{6-(4-cyanophenyl)-8-[(3R)-pyrrolidin-3-ylmethoxy]imidazo[1,5-a]pyridin-5-yl}-3,6-dihydropyridine-1(2H)-carboxylate]",0.1 to 0.5
